± gives the expanded uncertainty stated by the source.
Columns and labels:
[1] = Molar enthalpy of transition or fusion; settings: Crystal; DSC
[2] = for molar entropy: 101.33 kPa; for Normal melting temperature: DTA

OC[C@@H](O)[C@@H](O)[C@H](O)[C@H](O)CO [D-mannitol]
Settings	Molar enthalpy of transition or fusion [kJ/mol]
[1]	55.5 ± 8.9

[2]
Settings	molar entropy [J/K/mol]
1 K, Crystal, relaxation calorimetry	0.000631 ± 7.5e-05
2 K, Crystal, relaxation calorimetry	0.002978 ± 0.00029
3 K, Crystal, relaxation calorimetry	0.008828 ± 0.00083
4 K, Crystal, relaxation calorimetry	0.02011 ± 0.0019
5 K, Crystal, relaxation calorimetry	0.03893 ± 0.0036
6 K, Crystal, relaxation calorimetry	0.06761 ± 0.0063
7 K, Crystal, relaxation calorimetry	0.1087 ± 0.01
8 K, Crystal, relaxation calorimetry	0.165 ± 0.015
9 K, Crystal, relaxation calorimetry	0.2395 ± 0.022
10 K, Crystal, relaxation calorimetry	0.3351 ± 0.031
15 K, Crystal, relaxation calorimetry	1.202 ± 0.11
20 K, Crystal, relaxation calorimetry	2.796 ± 0.26
25 K, Crystal, relaxation calorimetry	5.087 ± 0.47
30 K, Crystal, relaxation calorimetry	7.955 ± 0.73
35 K, Crystal, relaxation calorimetry	11.26 ± 1
40 K, Crystal, relaxation calorimetry	14.89 ± 1.4
45 K, Crystal, relaxation calorimetry	18.76 ± 1.7
50 K, Crystal, relaxation calorimetry	22.8 ± 2.1
55 K, Crystal, relaxation calorimetry	26.97 ± 2.5
60 K, Crystal, relaxation calorimetry	31.23 ± 2.9
65 K, Crystal, relaxation calorimetry	35.57 ± 3.3
70 K, Crystal, relaxation calorimetry	39.94 ± 3.7
75 K, Crystal, relaxation calorimetry	44.34 ± 4.1
80 K, Crystal, relaxation calorimetry	48.76 ± 4.5
85 K, Crystal, relaxation calorimetry	53.19 ± 4.9
90 K, Crystal, relaxation calorimetry	57.61 ± 5.3
95 K, Crystal, relaxation calorimetry	62.02 ± 5.7
100 K, Crystal, relaxation calorimetry	66.42 ± 6.1
110 K, Crystal, relaxation calorimetry	75.17 ± 6.9
120 K, Crystal, relaxation calorimetry	83.84 ± 7.7
130 K, Crystal, relaxation calorimetry	92.42 ± 8.5
140 K, Crystal, relaxation calorimetry	100.91 ± 9.3
150 K, Crystal, relaxation calorimetry	109.31 ± 10
160 K, Crystal, relaxation calorimetry	117.62 ± 11
170 K, Crystal, relaxation calorimetry	125.86 ± 12
180 K, Crystal, relaxation calorimetry	134.02 ± 12
190 K, Crystal, relaxation calorimetry	142.11 ± 13
200 K, Crystal, relaxation calorimetry	150.14 ± 14
210 K, Crystal, relaxation calorimetry	158.13 ± 15
220 K, Crystal, relaxation calorimetry	166.06 ± 15
230 K, Crystal, relaxation calorimetry	173.95 ± 16
240 K, Crystal, relaxation calorimetry	181.8 ± 17
250 K, Crystal, relaxation calorimetry	189.63 ± 17
260 K, Crystal, relaxation calorimetry	197.43 ± 18
270 K, Crystal, relaxation calorimetry	205.2 ± 19
273.15 K, Crystal, relaxation calorimetry	207.65 ± 19
280 K, Crystal, relaxation calorimetry	212.96 ± 20
290 K, Crystal, relaxation calorimetry	220.71 ± 20
298.15 K, Crystal, relaxation calorimetry	227.01 ± 21
300 K, Crystal, relaxation calorimetry	228.44 ± 21
305 K, Crystal, Small sample (50 mg) DSC	232.31 ± 56
310 K, Crystal, Small sample (50 mg) DSC	236.19 ± 57
315 K, Crystal, Small sample (50 mg) DSC	240.08 ± 58
320 K, Crystal, Small sample (50 mg) DSC	243.99 ± 59
325 K, Crystal, Small sample (50 mg) DSC	247.9 ± 60
330 K, Crystal, Small sample (50 mg) DSC	251.82 ± 61
335 K, Crystal, Small sample (50 mg) DSC	255.74 ± 62
340 K, Crystal, Small sample (50 mg) DSC	259.67 ± 63
345 K, Crystal, Small sample (50 mg) DSC	263.61 ± 64
350 K, Crystal, Small sample (50 mg) DSC	267.55 ± 64
355 K, Crystal, Small sample (50 mg) DSC	271.49 ± 65
360 K, Crystal, Small sample (50 mg) DSC	275.43 ± 66
365 K, Crystal, Small sample (50 mg) DSC	279.37 ± 67
370 K, Crystal, Small sample (50 mg) DSC	283.31 ± 68
375 K, Crystal, Small sample (50 mg) DSC	287.25 ± 69
380 K, Crystal, Small sample (50 mg) DSC	291.19 ± 70
385 K, Crystal, Small sample (50 mg) DSC	295.12 ± 71
390 K, Crystal, Small sample (50 mg) DSC	299.04 ± 72
395 K, Crystal, Small sample (50 mg) DSC	302.96 ± 73
400 K, Crystal, Small sample (50 mg) DSC	306.87 ± 74
405 K, Crystal, Small sample (50 mg) DSC	310.78 ± 75
410 K, Crystal, Small sample (50 mg) DSC	314.68 ± 76
415 K, Crystal, Small sample (50 mg) DSC	318.58 ± 77
420 K, Crystal, Small sample (50 mg) DSC	322.47 ± 78
425 K, Crystal, Small sample (50 mg) DSC	326.38 ± 79
430 K, Crystal, Small sample (50 mg) DSC	330.31 ± 80
435 K, Crystal, Small sample (50 mg) DSC	334.63 ± 81
450 K, Liquid, Small sample (50 mg) DSC	463.49 ± 110
455 K, Liquid, Small sample (50 mg) DSC	469.61 ± 110
460 K, Liquid, Small sample (50 mg) DSC	475.21 ± 110
465 K, Liquid, Small sample (50 mg) DSC	480.73 ± 120
470 K, Liquid, Small sample (50 mg) DSC	486.2 ± 120
475 K, Liquid, Small sample (50 mg) DSC	491.61 ± 120
480 K, Liquid, Small sample (50 mg) DSC	496.96 ± 120
485 K, Liquid, Small sample (50 mg) DSC	502.25 ± 120
490 K, Liquid, Small sample (50 mg) DSC	507.49 ± 120

Settings	Normal melting temperature [°C]
[2], Crystal	167.47 ± 0.61

O[C@H]1[C@H](O)[C@@H](O)[C@H](O)[C@@H](O)[C@H]1O [cis-1,2,3,5-trans-4,6-cyclohexanehexol]
Settings	Molar enthalpy of transition or fusion [kJ/mol]
[1]	50.1 ± 7.1

[2]
Settings	molar entropy [J/K/mol]
1 K, Crystal, relaxation calorimetry	0.001133 ± 0.00012
2 K, Crystal, relaxation calorimetry	0.00457 ± 0.00044
3 K, Crystal, relaxation calorimetry	0.01283 ± 0.0012
4 K, Crystal, relaxation calorimetry	0.0288 ± 0.0027
5 K, Crystal, relaxation calorimetry	0.05587 ± 0.0052
6 K, Crystal, relaxation calorimetry	0.09786 ± 0.009
7 K, Crystal, relaxation calorimetry	0.1588 ± 0.015
8 K, Crystal, relaxation calorimetry	0.2429 ± 0.022
9 K, Crystal, relaxation calorimetry	0.3528 ± 0.033
10 K, Crystal, relaxation calorimetry	0.4907 ± 0.045
15 K, Crystal, relaxation calorimetry	1.619 ± 0.15
20 K, Crystal, relaxation calorimetry	3.401 ± 0.31
25 K, Crystal, relaxation calorimetry	5.648 ± 0.52
30 K, Crystal, relaxation calorimetry	8.19 ± 0.75
35 K, Crystal, relaxation calorimetry	10.93 ± 1
40 K, Crystal, relaxation calorimetry	13.82 ± 1.3
45 K, Crystal, relaxation calorimetry	16.84 ± 1.5
50 K, Crystal, relaxation calorimetry	19.96 ± 1.8
55 K, Crystal, relaxation calorimetry	23.14 ± 2.1
60 K, Crystal, relaxation calorimetry	26.38 ± 2.4
65 K, Crystal, relaxation calorimetry	29.66 ± 2.7
70 K, Crystal, relaxation calorimetry	33 ± 3
75 K, Crystal, relaxation calorimetry	36.38 ± 3.3
80 K, Crystal, relaxation calorimetry	39.8 ± 3.7
85 K, Crystal, relaxation calorimetry	43.26 ± 4
90 K, Crystal, relaxation calorimetry	46.76 ± 4.3
95 K, Crystal, relaxation calorimetry	50.29 ± 4.6
100 K, Crystal, relaxation calorimetry	53.84 ± 4.9
110 K, Crystal, relaxation calorimetry	61.01 ± 5.6
120 K, Crystal, relaxation calorimetry	68.23 ± 6.3
130 K, Crystal, relaxation calorimetry	75.5 ± 6.9
140 K, Crystal, relaxation calorimetry	82.8 ± 7.6
150 K, Crystal, relaxation calorimetry	90.1 ± 8.3
160 K, Crystal, relaxation calorimetry	97.42 ± 8.9
170 K, Crystal, relaxation calorimetry	104.72 ± 9.6
180 K, Crystal, relaxation calorimetry	112.03 ± 10
190 K, Crystal, relaxation calorimetry	119.33 ± 11
200 K, Crystal, relaxation calorimetry	126.62 ± 12
210 K, Crystal, relaxation calorimetry	133.91 ± 12
220 K, Crystal, relaxation calorimetry	141.19 ± 13
230 K, Crystal, relaxation calorimetry	148.47 ± 14
240 K, Crystal, relaxation calorimetry	155.74 ± 14
250 K, Crystal, relaxation calorimetry	163.02 ± 15
260 K, Crystal, relaxation calorimetry	170.3 ± 16
270 K, Crystal, relaxation calorimetry	177.58 ± 16
273.15 K, Crystal, relaxation calorimetry	179.88 ± 17
280 K, Crystal, relaxation calorimetry	184.87 ± 17
290 K, Crystal, relaxation calorimetry	192.17 ± 18
298.15 K, Crystal, relaxation calorimetry	198.12 ± 18
300 K, Crystal, relaxation calorimetry	199.48 ± 18
305 K, Crystal, Small sample (50 mg) DSC	203.13 ± 43
310 K, Crystal, Small sample (50 mg) DSC	206.81 ± 44
315 K, Crystal, Small sample (50 mg) DSC	210.5 ± 44
320 K, Crystal, Small sample (50 mg) DSC	214.2 ± 45
325 K, Crystal, Small sample (50 mg) DSC	217.91 ± 46
330 K, Crystal, Small sample (50 mg) DSC	221.64 ± 47
335 K, Crystal, Small sample (50 mg) DSC	225.37 ± 48
340 K, Crystal, Small sample (50 mg) DSC	229.11 ± 48
345 K, Crystal, Small sample (50 mg) DSC	232.86 ± 49
350 K, Crystal, Small sample (50 mg) DSC	236.62 ± 50
355 K, Crystal, Small sample (50 mg) DSC	240.38 ± 51
360 K, Crystal, Small sample (50 mg) DSC	244.15 ± 52
365 K, Crystal, Small sample (50 mg) DSC	247.92 ± 52
370 K, Crystal, Small sample (50 mg) DSC	251.69 ± 53
375 K, Crystal, Small sample (50 mg) DSC	255.47 ± 54
380 K, Crystal, Small sample (50 mg) DSC	259.25 ± 55
385 K, Crystal, Small sample (50 mg) DSC	263.03 ± 56
390 K, Crystal, Small sample (50 mg) DSC	266.82 ± 56
395 K, Crystal, Small sample (50 mg) DSC	270.6 ± 57
400 K, Crystal, Small sample (50 mg) DSC	274.38 ± 58
405 K, Crystal, Small sample (50 mg) DSC	278.16 ± 59
410 K, Crystal, Small sample (50 mg) DSC	281.94 ± 60
415 K, Crystal, Small sample (50 mg) DSC	285.72 ± 60
420 K, Crystal, Small sample (50 mg) DSC	289.5 ± 61
425 K, Crystal, Small sample (50 mg) DSC	293.27 ± 62
430 K, Crystal, Small sample (50 mg) DSC	297.05 ± 63
435 K, Crystal, Small sample (50 mg) DSC	300.82 ± 63
440 K, Crystal, Small sample (50 mg) DSC	304.59 ± 64
445 K, Crystal, Small sample (50 mg) DSC	308.35 ± 65
450 K, Crystal, Small sample (50 mg) DSC	312.12 ± 66
455 K, Crystal, Small sample (50 mg) DSC	315.89 ± 67
460 K, Crystal, Small sample (50 mg) DSC	319.66 ± 67
465 K, Crystal, Small sample (50 mg) DSC	323.43 ± 68
470 K, Crystal, Small sample (50 mg) DSC	327.21 ± 69
475 K, Crystal, Small sample (50 mg) DSC	331 ± 70
480 K, Crystal, Small sample (50 mg) DSC	334.8 ± 71
485 K, Crystal, Small sample (50 mg) DSC	338.61 ± 71
490 K, Crystal, Small sample (50 mg) DSC	342.46 ± 72
495 K, Crystal, Small sample (50 mg) DSC	346.55 ± 73
510 K, Liquid, Small sample (50 mg) DSC	453.9 ± 96
515 K, Liquid, Small sample (50 mg) DSC	458.89 ± 97
520 K, Liquid, Small sample (50 mg) DSC	463.79 ± 98
525 K, Liquid, Small sample (50 mg) DSC	468.65 ± 99
530 K, Liquid, Small sample (50 mg) DSC	473.46 ± 100
535 K, Liquid, Small sample (50 mg) DSC	478.23 ± 100
540 K, Liquid, Small sample (50 mg) DSC	482.95 ± 100

Settings	Normal melting temperature [°C]
[2], Crystal	224.58 ± 0.61

Reference: the NIST ThermoML archive (doi:10.1016/j.jct.2017.08.004)
